Laboratory results reported in patent US12692254B2, “Benzimidazole inhibitors of PAD enzymes” (BRISTOL-MYERS SQUIBB COMPANY, priority 2018, dated 2026).

The compounds below were run against human PAD4 (hPAD4) (Homo sapiens, UniProt Q9UM07) (assay: RFMS human PAD4 functional assay (rapid-fire mass spectrum)). Settings: 5 nM hPAD4 enzyme, 250 μM BAEE, 50 μM Calcium; 30 min preincubation, 90 min reaction at 37° C.
Sequence of human PAD4 (hPAD4) (Q9UM07 whole entry): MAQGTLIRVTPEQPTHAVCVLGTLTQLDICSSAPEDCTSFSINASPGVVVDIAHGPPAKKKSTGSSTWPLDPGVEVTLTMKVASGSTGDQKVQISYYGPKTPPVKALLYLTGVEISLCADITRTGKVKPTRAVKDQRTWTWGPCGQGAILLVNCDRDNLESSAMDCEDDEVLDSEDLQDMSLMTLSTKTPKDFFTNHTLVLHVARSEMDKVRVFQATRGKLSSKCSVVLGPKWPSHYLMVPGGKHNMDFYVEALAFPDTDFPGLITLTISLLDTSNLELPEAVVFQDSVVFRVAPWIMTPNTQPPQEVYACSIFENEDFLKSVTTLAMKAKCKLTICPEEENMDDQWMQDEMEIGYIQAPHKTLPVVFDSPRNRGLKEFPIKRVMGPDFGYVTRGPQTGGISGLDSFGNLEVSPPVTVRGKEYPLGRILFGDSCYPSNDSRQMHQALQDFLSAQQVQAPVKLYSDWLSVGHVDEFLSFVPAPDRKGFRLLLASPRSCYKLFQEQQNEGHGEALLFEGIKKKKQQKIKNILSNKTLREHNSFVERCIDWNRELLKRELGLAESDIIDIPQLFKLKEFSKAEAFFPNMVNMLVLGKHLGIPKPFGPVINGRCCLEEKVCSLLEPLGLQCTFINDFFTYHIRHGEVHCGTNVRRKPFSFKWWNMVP
Format: biochemical
In short: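 PAD4 (10 nM) preincubated 30 min with compound (top final 50 μM), then BAEE substrate added in pH 7.5 HEPES buffer with DTT, 50 μM calcium, TPEN; 90 min at 37° C. After TCA quench, citrulline derivatized with phenyl glyoxal (4 mM final, 30 min, 37° C) and quantified by RapidFire MS against internal standard.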
COc1cc(C(=O)N2C[C@H]3CC[C@@H]2[C@@H]3N)cc2nc(-c3cc4cccnc4n3CC3CC3)n(C3CN(S(C)(=O)=O)C3)c12 [Example 330, (1R,4R,7R)-2-{2-[1-(cyclopropylmethyl)-1H-pyrrolo[2,3-b]pyridin-2-yl]-1-(1-methanesulfonylazetidin-3-yl)-7-methoxy-1H-1,3-benzodiazole-5-carbonyl}-2-azabicyclo[2.2.1]heptan-7-amine] was tested, and the IC50 was 184 nM.
Work on COc1cc(C(=O)N2CC3CCC2[C@@H]3N)cc2nc(-c3cc4cccnc4n3CC3CC3)n(Cc3cnn(-c4cncc(C#N)c4)c3)c12 (stereo partly drawn) [Example 346, 5-[4-({5-[(7R)-7-amino-2-azabicyclo[2.2.1]heptane-2-carbonyl]-2-[1-(cyclopropylmethyl)-1H-pyrrolo[2,3-b]pyridin-2-yl]-7-methoxy-1H-1,3-benzodiazol-1-yl}methyl)-1H-pyrazol-1-yl]pyridine-3-carbonitrile] yielded an IC50 of 61 nM.
In the case of COc1cc(C(=O)N2CC3CCC2[C@@H]3N)cc2nc(-c3cc4cccnc4n3CC3CC3)n(Cc3cnn(-c4ncc(Cl)cc4F)c3)c12 (stereo partly drawn) [Example 342, ((7R)-7-amino-2-azabicyclo[2.2.1]heptan-2-yl)(1-((1-(5-chloro-3-fluoropyridin-2-yl)-1H-pyrazol-4-yl)methyl)-2-(1-(cyclopropylmethyl)-1H-pyrrolo[2,3-b]pyridin-2-yl)-7-methoxy-1H-benzo[d]imidazol-5-yl)methanone], the IC50 is reported as 26 nM.
Work on COc1cc(C(=O)N2C[C@H]3CC[C@@H]2[C@@H]3N)cc2nc(-c3cc4ccccc4n3CC3CC3)n(Cc3ccncc3)c12 [Example 272, (1R,4R,7R)-2-(2-[1-(cyclopropylmethyl)-1H-indol-2-yl]-7-methoxy-1-[(pyridin-4-yl)methyl]-1H-1,3-benzodiazole-5-carbonyl}-2-azabicyclo[2.2.1]heptan-7-amine] yielded an IC50 of 179 nM.
COc1cc(C(=O)N2C[C@H]3CC[C@@H]2[C@@H]3N)cc2nc(-c3cc4cccnc4n3CC3CC3)n(CC3CN(c4cncnc4C#N)C3)c12 [Example 52, 5-[3-({5-[(1R,4R,7R)-7-amino-2-azabicyclo[2.2.1]heptane-2-carbonyl]-2-[1-(cyclopropylmethyl)-1H-pyrrolo[2,3-b]pyridin-2-yl]-7-methoxy-1H-1,3-benzodiazol-1-yl}methyl)azetidin-1-yl]pyrimidine-4-carbonitrile] gave an IC50 of 156 nM.
In the case of COc1cc(C(=O)N2CC3CCC2[C@@H]3N)cc2nc(-c3cc4ccccc4n3CC3CC3)n(CC3(C)CN(C(=O)c4ccccc4)C3)c12 (stereo partly drawn) [Example 426, (7R)-2-{1-[(1-benzoyl-3-methylazetidin-3-yl)methyl]-2-[1-(cyclopropylmethyl)-1H-indol-2-yl]-7-methoxy-1H-1,3-benzodiazole-5-carobnyl}-2-azabicyclo[2.2.1]heptan-7-amine], the IC50 is reported as 24 nM.
For COc1cc(C(=O)N2C[C@H]3CC[C@@H]2[C@@H]3N)cc2nc(-c3cc4ccccc4n3CC3CC3)n(Cc3cccnc3)c12 [Example 246, (1R,4R,7R)-2-{2-[1-(cyclopropylmethyl)-1H-indol-2-yl]-7-methoxy-1-[(pyridin-3-yl)methyl]-1H-1,3-benzodiazole-5-carbonyl}-2-azabicyclo[2.2.1]heptan-7-amine], the IC50 was 25 nM.
COc1cc(C(=O)N2C[C@H](N)C[C@@H](F)C2)cc2nc(-c3cc4cccnc4n3CC3CC3)n(Cc3cnn(-c4cncc(C#N)c4)c3)c12 [Example 391, 5-[4-({5-[(3R,5R)-3-amino-5-fluoropiperidine-1-carbonyl]-2-[1-(cyclopropylmethyl)-1H-pyrrolo[2,3-b]pyridin-2-yl]-7-methoxy-1H-1,3-benzodiazol-1-yl}methyl)-1H-pyrazol-1-yl]pyridine-3-carbonitrile] gave an IC50 of 47 nM.
COc1cc(C(=O)N2C[C@H]3CC[C@@H]2[C@@H]3N)cc2nc(-c3cc4cccnc4n3CC3CC3)n(CC3CN(C(=O)C4CCC4)C3)c12 [Example 114, (1R,4R,7R)-2-{1-[(1-cyclobutanecarbonylazetidin-3-yl)methyl]-2-[1-(cyclopropylmethyl)-1H-pyrrolo[2,3-b]pyridin-2-yl]-7-methoxy-1H-1,3-benzodiazole-5-carbonyl}-2-azabicyclo[2.2.1]heptan-7-amine] gave an IC50 of 54 nM.
For COc1cc(C(=O)N2CCC[C@@H](N)C2)cc2nc(-c3cc4ccccc4n3CC3CC3)n(Cc3cnn(C)c3)c12 [Example 267, (3R)-1-{2-[1-(cyclopropylmethyl)-1H-indol-2-yl]-7-methoxy-1-[(1-methyl-1H-pyrazol-4-yl)methyl]-1H-1,3-benzodiazole-5-carbonyl}piperidin-3-amine], the IC50 was 98 nM.
COc1cc(C(=O)N2C[C@H]3CC[C@@H]2[C@@H]3N)cc2nc(-c3cc4ccccc4n3CC3CC3)n(CC3CCC(=O)N3)c12 (stereo partly drawn) [Example 275, 5-({5-[(1R,4R,7R)-7-amino-2-azabicyclo[2.2.1]heptane-2-carbonyl]-2-[1-(cyclopropylmethyl)-1H-indol-2-yl]-7-methoxy-1H-1,3-benzodiazol-1-yl}methyl)pyrrolidin-2-one] was tested, and the IC50 was 298 nM.
COc1cc(C(=O)N2C[C@H]3CC[C@@H]2[C@@H]3N)cc2nc(-c3cc4cccnc4n3CC3CC3)n(CC3CCN(c4ccncn4)CC3)c12 [Example 217, (1R,4R,7R)-2-{2-[1-(cyclopropylmethyl)-1H-pyrrolo[2,3-b]pyridin-2-yl]-7-methoxy-1-{[1-(pyrimidin-4-yl)piperidin-4-yl]methyl}-1H-1,3-benzodiazole-5-carbonyl}-2-azabicyclo[2.2.1]heptan-7-amine] was tested, and the IC50 was 56 nM.
In the case of COc1cc(C(=O)N2C[C@H]3CC[C@@H]2[C@@H]3N)cc2nc(-c3cc4ccccc4n3CC3CC3)n(CC3CN(C(=O)c4cccnc4)C3)c12 [Example 171, (1R,4R,7R)-2-{2-[1-(cyclopropylmethyl)-1H-indol-2-yl]-7-methoxy-1-{[1-(pyridine-3-carbonyl)azetidin-3-yl]methyl}-1H-1,3-benzodiazole-5-carbonyl}-2-azabicyclo[2.2.1]heptan-7-amine], the IC50 is reported as 41 nM.
For N#Cc1ccc(C(=O)N2CC(Cn3c(-c4cc5cccnc5n4CC4CC4)nc4cc(C(=O)N5C[C@H]6CC[C@@H]5[C@@H]6N)cc(Cl)c43)C2)cc1 [Example 96, 4-[3-({5-[(1R,4R,7R)-7-amino-2-azabicyclo[2.2.1]heptane-2-carbonyl]-7-chloro-2-[1-(cyclopropylmethyl)-1H-pyrrolo[2,3-b]pyridin-2-yl]-1H-1,3-benzodiazol-1-yl}methyl)azetidine-1-carbonyl]benzonitrile], the IC50 was 83 nM.
COc1cc(C(=O)N2C[C@H]3CC[C@@H]2[C@@H]3N)cc2nc(-c3cc4cccnc4n3CC3CC3)n(C3CN(c4ccccc4)C3)c12 [Example 81, (1R,4R,7R)-2-{2-[1-(cyclopropylmethyl)-1H-pyrrolo[2,3-b]pyridin-2-yl]-7-methoxy-1-(1-phenylazetidin-3-yl)-1H-1,3-benzodiazole-5-carbonyl}-2-azabicyclo[2.2.1]heptan-7-amine] gave an IC50 of 403 nM.
With COc1cc(C(=O)N2CC3CCC2[C@@H]3N)cc2nc(-c3cc4ccccc4n3CC3CC3)n(Cc3cnn(CC#N)c3)c12 (stereo partly drawn) [Example 405, 2-[4-({5-[(7R)-7-amino-2-azabicyclo[2.2.1]heptane-2-carbonyl]-2-[1-(cyclopropylmethyl)-1H-indol-2-yl]-7-methoxy-1H-1,3-benzodiazol-1-yl}methyl)-1H-pyrazol-1-yl]acetonitrile] the IC50 was 66 nM.
For COc1cc(C(=O)N2C[C@H](N)C[C@@H](F)C2)cc2nc(-c3cc4ccccc4n3CC3CC3)n(CC3(C)CN(C(=O)c4ccccc4)C3)c12 [Example 460, (3R,5R)-1-{1-[(1-benzoyl-3-methylazetidin-3-yl)methyl]-2-[1-(cyclopropylmethyl)-1H-indol-2-yl]-7-methoxy-1H-1,3-benzodiazole-5-carbonyl}-5-fluoropiperidin-3-amine], the IC50 was 67 nM.
N[C@@H]1C2CCC1N(C(=O)c1cc(F)c3c(c1)nc(-c1cc4cccnc4n1CC1CC1)n3CC1CN(C(=O)c3ccccc3)C1)C2 (stereo partly drawn) [Example 439, (7R)-2-{1-[(1-benozylazetidin-3-yl)methyl]-2-[1-(cyclopropylmethyl)-1H-pyrrolo[2,3-b]pyridin-2-yl]-7-fluoro-1H-1,3-benzodiazol-5-carbonyl}-2-azabicyclo[2.2.1]heptan-7-amine] showed an IC50 of 36 nM.
For COc1cc(C(=O)N2CCC[C@@H](N)C2)cc2nc(-c3cc4cccnc4n3CC3CC3)n([C@H]3C[C@H](N)C3)c12 [Example 300, (3R)-1-{2-[1-(cyclopropylmethyl)-1H-pyrrolo[2,3-b]pyridin-2-yl]-7-methoxy-1-[(1r,3r)-3-aminocyclobutyl]-1H-1,3-benzodiazole-5-carbonyl}piperidin-3-amine], the IC50 was 912 nM.
Work on COc1cc(C(=O)N2C[C@H]3CC[C@@H]2[C@@H]3N)cc2nc(-c3cc4ccccc4n3CC3CC3)n(CC3CN(c4cncnc4C#N)C3)c12 [Example 11, 5-[3-({5-[(1R,4R,7R)-7-amino-2-azabicyclo[2.2.1]heptane-2-carbonyl]-2-[1-(cyclopropylmethyl)-1H-indol-2-yl]-7-methoxy-1H-1,3-benzodiazol-1-yl}methyl)azetidin-1-yl]pyrimidine-4-carbonitrile] yielded an IC50 of 37 nM.
COc1cc(C(=O)N2C[C@H]3CC[C@@H]2[C@@H]3N)cc2nc(-c3cc4cccnc4n3CC3CC3)n(CC3CN(C(=O)c4cnc(C#N)nc4)C3)c12 [Example 127, 5-[3-({5-[(1R,4R,7R)-7-amino-2-azabicyclo[2.2.1]heptane-2-carbonyl]-2-[1-(cyclopropylmethyl)-1H-pyrrolo[2,3-b]pyridin-2-yl]-7-methoxy-1H-1,3-benzodiazol-1-yl}methyl)azetidine-1-carbonyl]pyrimidine-2-carbonitrile] gave an IC50 of 109 nM.
COc1cc(C(=O)N2CC3CCC2[C@@H]3N)cc2nc(-c3cc4cccnc4n3CC3CC3)n(Cc3cnn(-c4ccc(Cl)cn4)c3)c12 (stereo partly drawn) [Example 360, (7R)-2-(1-{[1-(5-chloropyridin-2-yl)-1H-pyrazol-4-yl]methyl}-2-[1-(cyclopropylmethyl)-1H-pyrrolo[2,3-b]pyridin-2-yl]-7-methoxy-1H-1,3-benzodiazole-5-carbonyl)-2-azabicyclo[2.2.1]heptan-7-amine] was tested, and the IC50 was 24 nM.
